In patent publication US9101620B2, “Polymorph of 3-(substituteddihydroisoindolinone-2-yl)-2,6-dioxopiperidine, and pharmaceutical compositions thereof” (Nanjing Cavendish Bio-Engineering Technology Co., Ltd., priority 2009, dated 2015):
Entries after “also recorded” stand apart in the source; their conditions may differ.

Tests used:
Format in all cases: physicochemical
[1] = High humidity test (room temperature, 75±5% relative humidity); conditions: for Change of appearance and content (in words) / Moisture absorption (in words): high humidity test, summary; for Appearance / Content / Weight gain of moisture absorption: room temperature, 75±5% relative humidity
Method: (§1) The raw material of Polymorph 1 of 3-(4-amino-1-oxo-1,3-dihydro-2H-isoindole-2-yl)-piperidine-2,6-dione (hemihydrate) was distributed homogeneously in open petri dish with thickness of the raw material not more than 5 mm and put into thermostatic and humidostatic incubator at room temperature (about 25° C.) and 75±5% relative humidity. Sample was tested at the 5th and 10th day respectively and the results were contrasted with that of the Day 0. Results were listed in Tab. 4. After high humidity test of 75±5% relative humidity for 10 days, the X-ray powder diffraction pattern was shown in FIG. 9; DSC diagram was in FIG. 10-1; TGA diagram was in FIG. 10-2.
as §1, with “Polymorph II” for “Polymorph 1”, “3-(4-amino-1-oxo-1,3-dihydro-2H-isoindole-2-yl)-piperidine-2,6-dione” for “3-(4-amino-1-oxo-1,3-dihydro-2H-isoindole-2-yl)-piperidine-2,6-dione (hemihydrate)”, “Tab. 9.” for “Tab. 4.”, “FIG. 20;” for “FIG. 9;”, “FIG. 21-1;” for “FIG. 10-1;”, “FIG. 21-2.” for “FIG. 10-2.”
as §1, with “Polymorph III” for “Polymorph 1”, “3-(4-amino-1-oxo-1,3-dihydro-2H-isoindole-2-yl)-piperidine-2,6-dione” for “3-(4-amino-1-oxo-1,3-dihydro-2H-isoindole-2-yl)-piperidine-2,6-dione (hemihydrate)”, “Tab. 14.” for “Tab. 4.”, “FIG. 31;” for “FIG. 9;”, “FIG. 32-1;” for “FIG. 10-1;”, “FIG. 32-2.” for “FIG. 10-2.”

[2] = Solubility test according to Chinese Pharmacopoeia Edition 2005; conditions: for Dissolving status: within 30 minutes
Method: Test was performed according to the Examples of Chinese Pharmacopoeia Edition 2005. Method: a definite quantity of the Polymorph I of 3-(4-amino-1-oxo-1,3-dihydro-2H-isoindole-2-yl)-piperidine-2,6-dione (hemihydrate) measured accurately was added into a certain quantity of solvent slowly, while the mixture was shaken strongly for 30 seconds every 5 minutes and the dissolving status within 30 minutes was observed. Results were listed in Tab. 1.
Test was performed according to the Examples of Chinese Pharmacopoeia Edition 2005. Method: a definite quantity of the (acetonitrile) solvated Polymorph II of 3-(4-amino-1-oxo-1,3-dihydro-2H-isoindole-2-yl)-piperidine-2,6-dione measured accurately was added into a certain quantity of solvent slowly, while the mixture was shaken strongly for 30 seconds every 5 minutes and the dissolving status within 30 minutes was observed. Results were listed in Tab. 61.
Test was performed according to the Examples of Chinese Pharmacopoeia Edition 2005. Method: a definite quantity of the (acetone) solvated polymorph III of 3-(4-amino-1-oxo-1,3-dihydro-2H-isoindole-2-yl)-piperidine-2,6-dione measured accurately was added into a certain quantity of solvent slowly while the mixture was shaken strongly for 30 seconds every 5 minutes and the dissolving status within 30 minutes was observed. Results were listed in Tab. 11.

[3] = Observation test of long-term sample storage (crystal transformation); conditions: long-term sample storage in high humidity; DSC scanning
[4] = High temperature test (60° C.); conditions: for Appearance / Content / Related substance: 60° C.; for Variation of appearance and content (in words): high temperature (60° C.) test, summary
Source text: The conditions and methods of related substance test involved in this invention were in accordance with HPLC (Appendix VD of Chinese Pharmacopoeia Edition 2005).
Chromatographic conditions and system applicability: octadecylsilane bonded silica as the filler; 0.01 mol/L of potassium dihydrogen phosphate (adjusted to pH 3.5 by phosphoric acid)-methanol-acetonitrile (80:15:5) as the mobile phase; detection wavelength was 240 nm; the number of theoretical plates should be not less than 2000, calculated according to the peak of 3-(4-amino-1-oxo-1,3-dihydro-2H-isoindole-2-yl)-piperidine-2,6-dione. The resolution of the peak of 3-(4-amino-1-oxo-1,3-dihydro-2H-isoindole-2-yl)-piperidine-2,6-dione from the peaks of adjacent impurities should meet requirements.
The raw material of Polymorph I of 3-(4-amino-1-oxo-1,3-dihydro-2H-isoindole-2-yl)-piperidine-2,6-dione (hemihydrate) was put into a clean sealed glass bottle and then put in thermostatic drying chamber at 60° C. Sample was tested at the 5th and 10th day respectively and the results were contrasted with that of the Day 0. Results were listed in Tab. 3. After high temperature test of 60° C. for 10 days, the X-ray powder diffraction pattern was shown FIG. 7; DSC diagram was in FIG. 8.
The raw material of Polymorph II of 3-(4-amino-1-oxo-1,3-dihydro-2H-isoindole-2-yl)-piperidine-2,6-dione was put into a clean sealed glass bottle and then put in thermostatic drying chamber at 60° C. Sample was tested at the 5th and 10th day respectively and the results were contrasted with that of the Day 0. Results were listed in Tab. 8. After high temperature test of 60° C. for 10 days, the X-ray powder diffraction pattern was shown in FIG. 18; DSC diagram was in FIG. 19.
The raw material of Polymorph III of 3-(4-amino-1-oxo-1,3-dihydro-2H-isoindole-2-yl)-piperidine-2,6-dione was put into a clean sealed glass bottle and then put in thermostatic drying chamber at 60° C. Sample was tested at the 5th and 10th day respectively and the results were contrasted with that of the Day 0. Results were listed in Tab. 13. After high temperature test of 60° C. for 10 days, the X-ray powder diffraction pattern was shown in FIG. 29; DSC diagram was in FIG. 30.

For Nc1cccc2c1CN(C1CCC(=O)NC1=O)C2=O (single isomer, unassigned) [Polymorph III, 3-(4-amino-1-oxo-1,3-dihydro-2H-isoindole-2-yl)-piperidine-2,6-dione], the “Change of appearance and content (in words)” value [1] was “few obvious change”, the “Moisture absorption (in words)” value [1] was “lower moisture absorption” and the Appearance ([1]; 0 days) was “off-white powder”. The Content ([1]; 0 days) was 99.86%, the Appearance ([1]; 5 days) was “off-white powder” and the Content ([1]; 5 days) was 99.83%. For the same compound, the “Weight gain of moisture absorption” value ([1]; 5 days) was 1.25%, the Appearance ([1]; 10 days) was “off-white powder” and the Content ([1]; 10 days) was 99.82%. For the same compound, the “Weight gain of moisture absorption” value ([1]; 10 days) was 1.37%, the “Conclusion (solubility)” value ([2]; 0.1 mol/L HCl solution) was “slightly soluble” and the Dissolving status ([2]; 0.1 mol/L HCl solution) was “fully”. For the same compound, the “Conclusion (solubility)” value ([2]; 0.1 mol/L NaOH solution) was “sparingly soluble”, the Dissolving status ([2]; 0.1 mol/L NaOH solution) was “fully” and the “Conclusion (solubility)” value ([2]; DMF (N,N-dimethylformamide)) was “soluble”. The Dissolving status ([2]; DMF) was “fully”, the “Conclusion (solubility)” value ([2]; DMSO (dimethylsulfoxide)) was “soluble” and the Dissolving status ([2]; DMSO) was “fully”. The “Conclusion (solubility)” value ([2]; acetic acid) was “sparingly soluble”, the Dissolving status ([2]; acetic acid) was “fully” and the “Conclusion (solubility)” value ([2]; acetone) was “slightly soluble”. For the same compound, the Dissolving status ([2]; acetone) was “fully”, the “Conclusion (solubility)” value ([2]; acetonitrile) was “slightly soluble” and the Dissolving status ([2]; acetonitrile) was “fully”. The “Conclusion (solubility)” value ([2]; ethanol) was “very slightly soluble and very”, the Dissolving status ([2]; ethanol) was “fully” and the “Conclusion (solubility)” value ([2]; ethyl acetate) was “very slightly soluble and very”. The Dissolving status ([2]; ethyl acetate) was “fully”, the “Conclusion (solubility)” value ([2]; methanol) was “slightly soluble” and the Dissolving status ([2]; methanol) was “fully”. The “Conclusion (solubility)” value ([2]; water) was “very slightly soluble; also recorded: practically”, the Dissolving status ([2]; water) was “cannot fully” and the Crystal transformation [3] was “a small amount of Polymorph III had transformed to Polymorph I”. The Appearance ([4]; 0 days) was “off-white powder”, the Content ([4]; 0 days) was 99.86% and the Related substance ([4]; 0 days) was 0.07%. For the same compound, the Appearance ([4]; 5 days) was “off-white powder”, the Content ([4]; 5 days) was 99.84% and the Related substance ([4]; 5 days) was 0.07%. For the same compound, the Appearance ([4]; 10 days) was “off-white powder”, the Content ([4]; 10 days) was 99.83% and the Related substance ([4]; 10 days) was 0.08%. The “Variation of appearance and content (in words)” value [4] was “few significant variation”.
For Nc1cccc2c1CN(C1CCC(=O)NC1=O)C2=O (single isomer, unassigned) [Polymorph II, 3-(4-amino-1-oxo-1,3-dihydro-2H-isoindole-2-yl)-piperidine-2,6-dione], the “Change of appearance and content (in words)” value [1] was “few obvious change”, the “Moisture absorption (in words)” value [1] was “lower moisture absorption” and the Appearance ([1]; 0 days) was “off-white powder”. The Content ([1]; 0 days) was 99.89%, the Appearance ([1]; 5 days) was “off-white powder” and the Content ([1]; 5 days) was 99.87%. For the same compound, the “Weight gain of moisture absorption” value ([1]; 5 days) was 1.33%, the Appearance ([1]; 10 days) was “off-white powder” and the Content ([1]; 10 days) was 99.87%. For the same compound, the “Weight gain of moisture absorption” value ([1]; 10 days) was 2.15%, the “Conclusion (solubility)” value ([2]; 0.1 mol/L HCl solution) was “sparingly soluble” and the Dissolving status ([2]; 0.1 mol/L HCl solution) was “fully”. The “Conclusion (solubility)” value ([2]; 0.1 mol/L NaOH solution) was “slightly soluble”, the Dissolving status ([2]; 0.1 mol/L NaOH solution) was “fully” and the “Conclusion (solubility)” value ([2]; DMF (N,N-dimethylformamide)) was “freely soluble”. For the same compound, the Dissolving status ([2]; DMF) was “fully”, the “Conclusion (solubility)” value ([2]; DMSO (dimethylsulfoxide)) was “freely soluble” and the Dissolving status ([2]; DMSO) was “fully”. For the same compound, the “Conclusion (solubility)” value ([2]; acetic acid) was “sparingly soluble”, the Dissolving status ([2]; acetic acid) was “fully” and the “Conclusion (solubility)” value ([2]; acetone) was “slightly soluble”. The Dissolving status ([2]; acetone) was “fully”, the “Conclusion (solubility)” value ([2]; acetonitrile) was “slightly soluble” and the Dissolving status ([2]; acetonitrile) was “fully”. The “Conclusion (solubility)” value ([2]; ethanol) was “very slightly soluble”, the Dissolving status ([2]; ethanol) was “fully” and the “Conclusion (solubility)” value ([2]; ethyl acetate) was “very slightly soluble”. For the same compound, the Dissolving status ([2]; ethyl acetate) was “fully”, the “Conclusion (solubility)” value ([2]; methanol) was “very slightly soluble” and the Dissolving status ([2]; methanol) was “fully”. The “Conclusion (solubility)” value ([2]; water) was “nearly insoluble; also recorded: practically”, the Dissolving status ([2]; water) was “cannot fully” and the Crystal transformation [3] was “a small amount of Polymorph II had transformed to Polymorph I”. For the same compound, the Appearance ([4]; 0 days) was “Off-white powder”, the Content ([4]; 0 days) was 99.89% and the Related substance ([4]; 0 days) was 0.09%. For the same compound, the Appearance ([4]; 5 days) was “Off-white powder”, the Content ([4]; 5 days) was 99.86% and the Related substance ([4]; 5 days) was 0.09%. For the same compound, the Appearance ([4]; 10 days) was “Off-white powder”, the Content ([4]; 10 days) was 99.87% and the Related substance ([4]; 10 days) was 0.10%. For the same compound, the “Variation of appearance and content (in words)” value [4] was “few significant variation”.
